Assay results taken from patent US9938261B2, “Heterocyclic compounds and methods of use thereof” (AMBIT BIOSCIENCES CORPORATION, priority 2011, dated 2018).
Like-named read-outs stand apart in the source and are kept apart here.

Columns and labels:
[1] = target: T1, PDGFRβ (Homo sapiens, UniProt P09619); test: Competition binding assay, PDGFRβ Kd
T1 construct: made in house
Experimental: (§1) Competition binding assays used herein were developed, validated and performed as described in Fabian et al., Nature Biotechnology 2005, 23, 329-336. Kinases were produced as fusions to T7 phage (See, Fabian et al. or WO04/015142) or alternatively, the kinases were expressed in HEK-293 cells and subsequently tagged with DNA for PCR detection (See, WO08/005310). For the binding assays, streptavidin-coated magnetic beads were treated with biotinylated affinity ligands for 30 min at room temperature to generate affinity resins. The liganded beads were blocked with excess biotin and washed with blocking buffer (SeaBlock (Pierce), 1% BSA, 0.05% Tween 20, 1 mM DTT) to remove unbound ligand and to reduce non-specific binding. Binding reactions were assembled by combining kinase, liganded affinity beads, and test compounds in 1× binding buffer (20% SeaBlock, 0.17×PBS, 0.05% Tween 20, 6 mM DTT). Test compounds were prepared as 100× stocks in DMSO and diluted into the aqueous environment. Kds were determined using an eleven point threefold serial dilutions. DMSO or control compounds were was added to control assays lacking a test compound. Primary screen assays were performed in polypropylene 384-well plates in a final volume of 20-40 μL, while Kd determinations were performed in polystyrene 96-well plates in a final volume of 135 μL. The assay plates were incubated at room temperature with shaking for 1 hour to allow the binding reactions to reach equilibrium, and the affinity beads were washed extensively with wash buffer (1×PBS, 0.05% Tween 20) to remove unbound protein. The beads were then resuspended in elution buffer (1×PBS, 0.05% Tween […] non-biotinylated affinity ligand) and incubated at room temperature with shaking for 30 min. The kinase concentration in the eluates was measured by quantitative PCR.

[2] = test system: M-NFS-60 cells; test: M-NFS-60 cell proliferation assay (Alamar Blue); type: cell-based, mouse; conditions: Mus musculus, read-out: CSF1R M-NFS-60 CTB:IC50
Experimental: The compounds disclosed herein were tested in an M-NFS-60 cell proliferation assay to determine their cellular potency against CSF1R. M-NFS-60s are mouse monocytic cells that depend on the binding of the ligand M-CSF to its receptor, CSF1R, to proliferate. Inhibition of CSF1R kinase activity will cause reduced growth and/or cell death. This assay assesses the potency of compounds as CSF1R inhibitors by measuring the reduction of Alamar Blue reagent by viable cells.
On day one of the experiment, M-NFS-60 cells were maintained in RPMI complete medium (Omega Scientific) plus 10% FBS supplemented with 20 ng/mL of M-CSF (R&D Systems). 96-well TC-treated, flat bottom plates were seeded at 10,000 cell/well at a volume of 100 μL per well. The cells were cultured overnight at 37° C. under 5% CO2.
On day two, compounds were added to the cells at 9 different concentrations, with half-log intervals alongside a control reference compound serving as a positive control. Final DMSO concentration was kept at 0.5% for a final volume of 200 μL. The compounds were allowed to incubate with the cells for 72 hours at 37° C. under 5% CO2.
On day five of the experiment, 40 μl of Alamar Blue reagent was added to each well and allowed to incubate for 3 hours. Alamar Blue fluorescence was read using SoftMax Pro software at 560 nm (excitation) and 590 nm (emission). IC50s were generated as an average of duplicates and represents the concentration of test compound that achieves 50% inhibition of cellular proliferation compared to control.

[3] = target: T2, CSF1R (Homo sapiens, UniProt P07333); test: HEK293 CSF1R phosphorylation MSD assay; type: cell-based; set-up: expressed in transfected cells; host or cells: HEK293; conditions: read-out: HEK293 pCSF1R M-CSF MSD:IC50
Experimental: The compounds disclosed herein were tested in a CSF1R phosphorylation assay to determine their cellular potency against CSF1R. A HEK293 cell line expressing CSF1R fused to FK506 binding protein (FKBP) as a molecular tag was generated. Inhibition of CSF1R kinase activity will prevent ligand-stimulated autophosphorylation of the CSF1R-FKBP in intact cells. Subsequent cell lysates are assayed in a sandwich ELISA employing the electrochemiluminescent Meso Scale Discovery (MSD) technology for the presence of the phosphorylated (p)CSF1R-FKBP. This assay determines the potency of compounds as CSF1R inhibitors by measuring the reduction in the amount of pCSF1R with increasing doses of compounds added to the cells prior to M-CSF stimulation.
On day one of the experiment, HEK293-CSF1R-FKPB cells, maintained in DMEM, with L-glutamine (Mediatech), 10% FBS, and 100 units/mL Penicillin/Streptomycin, were seeded at 50,000 cell/well in a volume of 100 μL per well in 96-well Cell Bind plates (Costar). The cells were cultured overnight at 37° C. under 5% CO2. To prepare the plates used in the MSD assay, a 330 nM biotin-FK506 (in TBS pH 7.2) solution was added at 30 μL per well to streptavidin-coated 96-well plates (MSD), and incubated overnight at room temperature, shaking at 500 rpm on an orbital shaker.
On day two, compounds diluted in DMSO were added to the cells in duplicate plates at 9 different concentrations with half-log intervals, plus DMSO only control, alongside a reference compound serving as a positive control. Final DMSO concentration was 0.5% in a volume of 200 μL per well. The compounds were allowed to incubate with the cells for 2 h at 37° C. under 5% CO2. At the end of the incubation, human M-CSF (R&D Systems) was added for 5 min to a final concentration of 50 ng/mL to stimulate CSF1R phosphorylation. Cells were lysed for 20 min, and the lysates were applied to the washed, FK506-coated MSD plates, and incubated overnight at 4° C. shaking at 500 rpm.
On day three, the MSD plates were washed, and the captured CSF1R-FKBP was assayed sequentially for phosphorylation using mouse anti-phosphotyrosine antibody (Millipore) and Sulfo-TAG goat anti-mouse IgG antibody (MSD), and detected on a Sector Imager 6000 instrument (MSD).
A single IC50 value for each compound was determined by averaging the IC50s of the duplicates calculated using Igor Pro 6 software, and represents the compound concentration that achieves a 50% inhibition of ligand-induced CSF1R phosphorylation compared to DMSO control.

[4] = target: T3, KIT (Homo sapiens, UniProt P10721); test: Competition binding assay, KIT Kd
T3 construct: made in house
Experimental: as §1

[5] = target: T4, FLT3 (Homo sapiens, UniProt P36888); test: Competition binding assay, FLT3 Kd
T4 construct: made in house
T4 sequence (P36888 27-993): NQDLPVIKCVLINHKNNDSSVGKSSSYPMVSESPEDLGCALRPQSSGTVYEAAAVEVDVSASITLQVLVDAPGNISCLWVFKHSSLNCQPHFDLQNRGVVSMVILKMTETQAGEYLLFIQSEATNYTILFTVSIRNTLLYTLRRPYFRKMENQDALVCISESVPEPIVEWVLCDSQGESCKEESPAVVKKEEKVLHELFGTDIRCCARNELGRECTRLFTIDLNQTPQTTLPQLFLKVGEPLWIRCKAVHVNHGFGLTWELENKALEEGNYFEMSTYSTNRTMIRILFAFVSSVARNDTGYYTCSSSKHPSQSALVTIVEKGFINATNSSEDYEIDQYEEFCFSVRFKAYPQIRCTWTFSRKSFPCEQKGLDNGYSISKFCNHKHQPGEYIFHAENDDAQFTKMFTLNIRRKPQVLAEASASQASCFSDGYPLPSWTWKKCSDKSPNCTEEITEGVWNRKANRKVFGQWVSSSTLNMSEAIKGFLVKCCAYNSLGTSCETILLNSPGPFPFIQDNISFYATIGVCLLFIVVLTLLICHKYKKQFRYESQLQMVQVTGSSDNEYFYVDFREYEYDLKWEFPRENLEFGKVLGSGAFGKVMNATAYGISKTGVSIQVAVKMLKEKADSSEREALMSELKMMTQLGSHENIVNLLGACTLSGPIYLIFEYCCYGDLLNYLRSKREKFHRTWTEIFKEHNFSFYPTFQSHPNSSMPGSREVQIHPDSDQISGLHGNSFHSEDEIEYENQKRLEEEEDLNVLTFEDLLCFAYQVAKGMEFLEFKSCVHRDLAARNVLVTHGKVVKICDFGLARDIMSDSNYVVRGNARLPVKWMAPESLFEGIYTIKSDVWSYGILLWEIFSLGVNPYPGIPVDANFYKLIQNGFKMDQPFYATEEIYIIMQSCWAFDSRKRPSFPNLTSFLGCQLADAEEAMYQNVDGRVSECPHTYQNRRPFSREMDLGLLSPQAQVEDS
Experimental: as §1

[6] = target: T2, CSF1R; test: Competition binding assay, CSF1R Kd; set-up: made in house
Experimental: as §1

[7] = 72 hours incubation, M-CSF 20 ng/mL
[8] = 2 h compound, human M-CSF 50 ng/mL for 5 min

T2 sequence (P07333 20-972): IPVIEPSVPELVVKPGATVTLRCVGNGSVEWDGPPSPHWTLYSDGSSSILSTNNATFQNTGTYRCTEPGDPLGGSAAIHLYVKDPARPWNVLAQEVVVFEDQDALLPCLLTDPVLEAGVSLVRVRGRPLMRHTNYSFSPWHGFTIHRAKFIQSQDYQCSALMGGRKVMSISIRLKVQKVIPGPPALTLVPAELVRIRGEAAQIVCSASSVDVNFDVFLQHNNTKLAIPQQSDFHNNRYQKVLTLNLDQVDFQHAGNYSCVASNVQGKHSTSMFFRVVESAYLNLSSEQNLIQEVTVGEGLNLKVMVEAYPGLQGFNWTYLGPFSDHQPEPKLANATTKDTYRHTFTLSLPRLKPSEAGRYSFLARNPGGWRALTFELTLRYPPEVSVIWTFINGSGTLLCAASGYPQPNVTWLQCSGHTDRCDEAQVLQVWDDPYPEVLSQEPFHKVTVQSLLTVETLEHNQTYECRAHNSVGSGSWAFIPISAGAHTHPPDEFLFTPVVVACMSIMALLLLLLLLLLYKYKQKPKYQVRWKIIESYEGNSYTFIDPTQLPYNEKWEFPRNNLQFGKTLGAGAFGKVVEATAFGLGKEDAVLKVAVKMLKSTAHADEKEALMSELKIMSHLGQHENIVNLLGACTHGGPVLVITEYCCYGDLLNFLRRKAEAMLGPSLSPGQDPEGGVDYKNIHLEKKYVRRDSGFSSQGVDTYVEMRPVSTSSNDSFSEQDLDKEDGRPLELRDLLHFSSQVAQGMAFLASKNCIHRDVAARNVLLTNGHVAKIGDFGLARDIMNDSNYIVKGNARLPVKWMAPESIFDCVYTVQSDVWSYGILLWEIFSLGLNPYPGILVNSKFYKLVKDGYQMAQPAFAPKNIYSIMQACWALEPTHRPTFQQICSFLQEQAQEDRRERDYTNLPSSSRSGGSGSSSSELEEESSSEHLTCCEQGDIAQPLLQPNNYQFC
T3 sequence (P10721 26-976): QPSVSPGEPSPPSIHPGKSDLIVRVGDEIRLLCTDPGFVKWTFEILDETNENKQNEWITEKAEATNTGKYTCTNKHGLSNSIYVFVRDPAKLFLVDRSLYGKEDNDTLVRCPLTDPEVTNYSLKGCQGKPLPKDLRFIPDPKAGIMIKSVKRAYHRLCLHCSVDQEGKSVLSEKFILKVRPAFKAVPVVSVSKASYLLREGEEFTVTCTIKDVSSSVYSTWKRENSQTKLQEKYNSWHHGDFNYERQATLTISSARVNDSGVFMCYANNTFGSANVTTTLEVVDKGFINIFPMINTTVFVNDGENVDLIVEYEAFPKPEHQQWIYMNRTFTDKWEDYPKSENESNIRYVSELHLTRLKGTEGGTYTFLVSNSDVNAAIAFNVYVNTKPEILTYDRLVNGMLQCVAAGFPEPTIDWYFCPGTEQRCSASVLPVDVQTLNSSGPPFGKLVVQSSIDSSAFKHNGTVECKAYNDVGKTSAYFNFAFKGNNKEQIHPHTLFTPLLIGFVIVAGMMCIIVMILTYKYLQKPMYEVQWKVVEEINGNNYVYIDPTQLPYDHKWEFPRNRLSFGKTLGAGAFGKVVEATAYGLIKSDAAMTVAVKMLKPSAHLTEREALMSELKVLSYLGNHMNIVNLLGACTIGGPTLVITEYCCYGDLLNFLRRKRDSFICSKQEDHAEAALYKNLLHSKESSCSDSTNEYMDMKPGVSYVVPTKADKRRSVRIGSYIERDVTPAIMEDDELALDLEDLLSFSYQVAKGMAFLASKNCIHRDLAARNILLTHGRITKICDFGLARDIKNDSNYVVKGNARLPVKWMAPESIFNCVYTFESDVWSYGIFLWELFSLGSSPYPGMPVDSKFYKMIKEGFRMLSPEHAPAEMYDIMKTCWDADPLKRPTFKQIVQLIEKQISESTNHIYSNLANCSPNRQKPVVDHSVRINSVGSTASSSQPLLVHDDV
T1 sequence (P09619 33-1106): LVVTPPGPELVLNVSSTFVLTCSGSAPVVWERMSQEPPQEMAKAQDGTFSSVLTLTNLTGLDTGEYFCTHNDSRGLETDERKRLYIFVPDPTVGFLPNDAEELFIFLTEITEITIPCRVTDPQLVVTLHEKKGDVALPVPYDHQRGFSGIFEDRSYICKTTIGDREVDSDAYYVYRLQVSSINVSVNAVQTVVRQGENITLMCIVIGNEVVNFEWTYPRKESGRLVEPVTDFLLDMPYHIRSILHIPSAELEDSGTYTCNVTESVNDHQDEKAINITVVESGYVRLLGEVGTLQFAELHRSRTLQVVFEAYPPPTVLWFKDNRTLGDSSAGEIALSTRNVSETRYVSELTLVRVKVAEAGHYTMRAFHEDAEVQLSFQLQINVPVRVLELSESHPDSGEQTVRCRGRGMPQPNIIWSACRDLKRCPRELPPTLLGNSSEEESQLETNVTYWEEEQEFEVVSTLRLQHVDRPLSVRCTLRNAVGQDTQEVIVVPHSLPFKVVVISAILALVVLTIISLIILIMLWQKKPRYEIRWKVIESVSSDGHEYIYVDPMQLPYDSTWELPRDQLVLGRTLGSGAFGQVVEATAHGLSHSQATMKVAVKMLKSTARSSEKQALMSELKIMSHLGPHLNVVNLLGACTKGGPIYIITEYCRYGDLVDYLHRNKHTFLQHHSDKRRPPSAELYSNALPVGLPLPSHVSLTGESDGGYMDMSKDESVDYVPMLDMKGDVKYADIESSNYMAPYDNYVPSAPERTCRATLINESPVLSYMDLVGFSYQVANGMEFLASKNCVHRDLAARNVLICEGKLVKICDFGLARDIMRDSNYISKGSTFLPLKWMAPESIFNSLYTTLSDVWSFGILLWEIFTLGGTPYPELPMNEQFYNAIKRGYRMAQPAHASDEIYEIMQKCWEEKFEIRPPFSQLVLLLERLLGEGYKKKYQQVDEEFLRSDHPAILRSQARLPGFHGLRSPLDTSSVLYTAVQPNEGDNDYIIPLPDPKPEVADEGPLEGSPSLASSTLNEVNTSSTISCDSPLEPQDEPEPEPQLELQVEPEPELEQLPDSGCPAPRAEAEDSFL

Row | Compound | Kd [1] [nM] | IC50 [3, 8] [nM] | Kd [4] [nM] | Kd [5] [nM] | Kd [6] [nM] | Kd ([1]; competition binding) [nM] | IC50 ([3]; HEK293 cells, M-CSF stimulated CSF1R phosphorylation, MSD) [nM] | Kd ([4]; competition binding) [nM] | Kd ([5]; competition binding) [nM] | Kd ([6]; competition binding) [nM] | IC50 [2, 7] [nM] | IC50 ([2]; M-NFS-60 cell proliferation) [nM]
1 | COc1cc2ncn(Cc3ccc4nc(NC5CCOC5)sc4c3)c2cc1OC (racemic) [Example 25, (R,S)-6-((5,6-dimethoxy-1H-benzo[d]imidazol-1-yl)methyl)-N-(tetrahydrofuran-3-yl)benzo[d]thiazol-2-amine acetic acid] | > 2000 | > 500 | > 2000 | > 5000 | > 50 |  |  |  |  |  | > 1500 | 
2 | COc1cc2ncn(Cc3ccc4nc(N[C@@H]5CCCC5O)sc4c3)c2cc1OC (stereo in doubt) [Example 20, (1R,2R)-2-((6-((5,6-dimethoxy-1H-benzo[d]imidazol-1-yl)methyl)benzo[d]thiazol-2-yl)amino)cyclopentanol] | > 2000 | 200 to 500 | > 2000 | 1000 to 5000 | 20 to 50 |  |  |  |  |  | > 1500 | 
3 | O[C@H]1CCCCC1Nc1nc2ccc(Cn3cnc4cc(F)cnc43)cc2s1 (stereo in doubt) [Example 213, (1S,2S)-2-((6-((6-fluoro-3H-imidazo[4,5-b]pyridin-3-yl)methyl)benzo[d]thiazol-2-yl)amino)cyclohexanol] |  |  |  |  |  | ≤ 50 | 50 to 200 | ≤ 100 | 200 to 1000 | ≤ 5 |  | 50 to 400
4 | O[C@@H]1CCCC[C@H]1Nc1nc2ccc(Cn3cnc4ncccc43)cc2s1 [Example 5, (1R,2R)-2-((6-((1H-imidazo[4,5-b]pyridin-1-yl)methyl)benzo[d]thiazol-2-yl)amino)cyclohexanol] | > 2000 | > 500 | > 2000 | > 5000 | > 50 |  |  |  |  |  | > 1500 | 
5 | COc1cc2ncn(Cc3ccc4nc(NCc5ccccn5)sc4c3)c2cc1OC [Example 9, 6-((5,6-dimethoxy-1H-benzo[d]imidazol-1-yl)methyl)-N-(pyridin-2-ylmethyl)benzo[d]thiazol-2-amine] | 500 to 2000 | 200 to 500 | 500 to 2000 | 1000 to 5000 | 20 to 50 |  |  |  |  |  | > 1500 | 

More lines, main results first:

Row | Kd [1] [nM] | IC50 [3, 8] [nM] | Kd [4] [nM] | Kd [5] [nM] | Kd [6] [nM] | Kd ([1]; competition binding) [nM] | IC50 ([3]; HEK293 cells, M-CSF stimulated CSF1R phosphorylation, MSD) [nM] | Kd ([4]; competition binding) [nM] | Kd ([5]; competition binding) [nM] | Kd ([6]; competition binding) [nM] | Compound | IC50 [2, 7] [nM] | IC50 ([2]; M-NFS-60 cell proliferation) [nM]
6 | 50 to 500 | 50 to 200 | 100 to 500 | 1000 to 5000 | 5 to 20 |  |  |  |  |  | O[C@H]1CCCC[C@H]1Nc1nc2ccc(Cn3cnc4ccccc43)cc2s1 (racemic) [Example 1, 2-((6-((1H-benzo[d]imidazol-1-yl)methyl)benzo[d]thiazol-2-yl)amino)cyclohexanol] | 50 to 400 | 
7 | 50 to 500 | ≤ 50 | 100 to 500 | 200 to 1000 | 5 to 20 |  |  |  |  |  | COc1cc2ncn(Cc3ccc4nc(N[C@@H]5CCCCC5O)sc4c3)c2cc1OC (stereo in doubt) [Example 2, (1R,2R)-2-((6-((5,6-dimethoxy-1H-benzo[d]imidazol-1-yl)methyl)benzo[d]thiazol-2-yl)amino)cyclohexanol] | 50 to 400 | 
8 | ≤ 50 | 50 to 200 | 100 to 500 | 200 to 1000 | 5 to 20 |  |  |  |  |  | O[C@H]1CCCCC1Nc1nc2ccc(Cn3cnc4ccccc43)cc2s1 (stereo in doubt) [Example 7, (1S,2S)-2-((6-((1H-benzo[d]imidazol-1-yl)methyl)benzo[d]thiazol-2-yl)amino)cyclohexanol] | 400 to 1500 | 
9 | 50 to 500 | 50 to 200 | 100 to 500 | ≤ 200 | 5 to 20 |  |  |  |  |  | O[C@@H]1CCCC[C@H]1Nc1nc2ccc(Cn3cnc4ccccc43)cc2s1 [Example 6, (1R,2R)-2-((6-((1H-benzo[d]imidazol-1-yl)methyl)benzo[d]thiazol-2-yl)amino)cyclohexanol] | 50 to 400 | 
10 | 500 to 2000 | 200 to 500 | 500 to 2000 | 1000 to 5000 | 5 to 20 |  |  |  |  |  | COc1cc2ncn(Cc3ccc4nc(NC[C@H]5CCCO5)sc4c3)c2cc1OC [Example 8, (R)-6-((5,6-dimethoxy-1H-benzo[d]imidazol-1-yl)methyl)-N-((tetrahydrofuran-2-yl)methyl)benzo[d]thiazol-2-amine] | > 1500 | 
